Results: patent US20100105694A1, “SUBSTITUTED PYRAZINONE DERIVATIVES FOR USE AS A MEDICINE” (priority 2006, published 2010)
Like-named read-outs stand apart in the source and are kept apart here.

Key:
5HT-Transporter = target: T1, 5HT-Transporter (Homo sapiens, UniProt P31645); experiment: Binding experiment for the 5HT-transporter ([3H]paroxetine, human platelet membranes)
T1 construct: Human platelet membranes (Oceanix Biosciences Corporation, Hanover, Md., USA) were thawed; tissue Oceanix Biosciences Corporation; host or cells: human platelet membranes
T1 sequence (P31645 whole entry): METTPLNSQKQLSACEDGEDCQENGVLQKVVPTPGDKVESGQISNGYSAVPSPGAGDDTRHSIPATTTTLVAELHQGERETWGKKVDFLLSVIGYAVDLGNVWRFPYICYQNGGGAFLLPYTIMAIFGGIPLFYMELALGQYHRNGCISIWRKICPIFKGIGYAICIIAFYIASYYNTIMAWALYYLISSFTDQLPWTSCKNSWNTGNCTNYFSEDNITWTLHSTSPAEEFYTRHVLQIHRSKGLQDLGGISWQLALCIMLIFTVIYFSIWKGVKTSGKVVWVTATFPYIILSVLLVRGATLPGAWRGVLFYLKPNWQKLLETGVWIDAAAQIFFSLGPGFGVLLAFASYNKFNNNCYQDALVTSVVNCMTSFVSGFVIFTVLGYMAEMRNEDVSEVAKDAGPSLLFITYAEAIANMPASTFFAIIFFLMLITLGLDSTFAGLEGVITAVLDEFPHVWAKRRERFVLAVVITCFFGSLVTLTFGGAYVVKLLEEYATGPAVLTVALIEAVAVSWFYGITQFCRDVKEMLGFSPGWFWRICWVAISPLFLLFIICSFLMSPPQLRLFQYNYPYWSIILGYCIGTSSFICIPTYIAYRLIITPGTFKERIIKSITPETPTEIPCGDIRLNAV
Experimental: (§1) The interaction of a compound of Formula (I) with α2C-adrenoceptor receptors was assessed in in vitro radioligand binding experiments. In general, a low concentration of a radioligand with a high binding affinity for a particular receptor or transporter is incubated with a sample of a tissue preparation enriched in a particular receptor or transporter or with a preparation of cells expressing cloned human receptors in a buffered medium. During the incubation, the radioligand binds to the receptor or transporter. When equilibrium of binding is reached, the receptor bound radioactivity is separated from the non-bound radioactivity, and the receptor- or transporter-bound activity is counted. The interaction of the test compounds with the receptor is assessed in competition binding experiments. Various concentrations of the test compound are added to the incubation mixture containing the receptor- or transporter preparation and the radioligand. The test compound in proportion to its binding affinity and its concentration inhibits binding of the radioligand. The radioligand used for hα2A and hα2C receptor binding was [^3H]-raulwolscine.
Human platelet membranes (Oceanix Biosciences Corporation, Hanover, Md., USA) were thawed, diluted in buffer (Tris-HCl 50 mM, 120 mM NaCl and 5 mM KCl) and quickly (max 3 s) homogenised with an Ultraturrax homogenizer. […] Incubation was stopped by rapid filtration of the incubation mixture over GF/B filters, pre-wetted with 0.1% polyethyleneamine, using a Filtermate196 harvester (Packard, Meriden, Conn.). Filters were rinsed extensively with ice-cold buffer and radioactivity on the filters was counted in a Topcount liquid scintillation counter (Packard, Meriden, Conn.). Data were expressed as cpm. Imipramine (at 1 μM final concentration) was used to determine the non-specific binding.
(§2) Data from assays in the presence of compound were calculated as a percentage of total binding measured in the absence of test compound. Inhibition curves, plotting percent of total binding versus the log value of the concentration of the test compound, were automatically generated, and sigmoidal inhibition curves were fitted using non-linear regression. The pIC50 values of test compounds were derived from individual curves.

[1] = target: T2, human adrenergic-α2C receptor (Homo sapiens, UniProt P18825); experiment: Radioligand binding experiment for α2C-adrenoceptor ([3H]raulwolscine, CHO cell membranes)
T2 construct: expressed in transfected cells; host or cells: CHO cells, stably transfected; membranes
T2 sequence (P18825 1-462): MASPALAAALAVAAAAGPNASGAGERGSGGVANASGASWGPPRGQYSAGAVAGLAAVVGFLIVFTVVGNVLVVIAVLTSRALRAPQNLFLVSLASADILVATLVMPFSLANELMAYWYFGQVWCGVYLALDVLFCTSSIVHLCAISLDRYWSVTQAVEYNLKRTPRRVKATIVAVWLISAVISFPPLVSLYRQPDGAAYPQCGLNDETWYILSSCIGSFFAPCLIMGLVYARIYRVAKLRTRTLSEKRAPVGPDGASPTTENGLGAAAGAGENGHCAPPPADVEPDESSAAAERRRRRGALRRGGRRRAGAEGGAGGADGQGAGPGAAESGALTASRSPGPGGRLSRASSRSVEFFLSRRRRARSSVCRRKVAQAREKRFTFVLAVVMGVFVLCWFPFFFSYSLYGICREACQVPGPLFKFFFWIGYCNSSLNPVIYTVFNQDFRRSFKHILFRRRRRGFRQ
Experimental: as §1
(§3) CHO cells, stabile transfected with human adrenergic-α2A and α2C receptor cDNA, were cultured in Dulbecco's Modified Eagle's Medium (DMEM)/Nutrient mixture Ham's F12 (ratio 1:1) (Gibco, Gent-Belgium) supplemented with 10% heat inactivated fetal calf serum (Life Technologies, Merelbeke-Belgium) and antibiotics (100 IU/ml penicillin G, 100 μg/ml streptomycin sulphate, 110 μg/ml pyruvic acid and 100 μg/ml L-glutamine). One day before collection, cells were induced with 5 mM sodiumbutyrate. Upon 80-90% of confluence, cells were scraped in phosphate buffered saline without Ca^2+ and Mg^2+ and collected by centrifugation at 1500×g for 10 minutes. The cells were homogenised in Tris-HCl 50 mM using an Ultraturrax homogenizer and centrifuged for 10 minutes at 23,500×g. The pellet was washed once by resuspension and rehomogenization and the final pellet was resuspended in Tris-HCl, divided in 1 ml aliquots and stored at −70° C.
(§4) Membranes were thawed and re-homogenized in incubation buffer (glycylglycine 25 mM, pH 8.0). […] Filters were rinsed extensively with ice-cold rinsing buffer (Tris-HCl 50 mM pH 7.4). Filter-bound radioactivity was determined by scintillation counting in a Topcount (Packard, Meriden, Conn.) and results were expressed as counts per minute (cpm). Non-specific binding was determined in the presence of 1 μM oxymetazoline for the hα2A receptor and 1 μM spiroxatrine for hα2C receptors.
as §2

[2] = target: T3, human adrenergic-α2A receptor (Homo sapiens, UniProt P08913); experiment: Radioligand binding experiment for hα2A receptor ([3H]raulwolscine, CHO cell membranes)
T3 construct: expressed in transfected cells; host or cells: CHO cells, stably transfected; membranes
T3 sequence (P08913 1-465): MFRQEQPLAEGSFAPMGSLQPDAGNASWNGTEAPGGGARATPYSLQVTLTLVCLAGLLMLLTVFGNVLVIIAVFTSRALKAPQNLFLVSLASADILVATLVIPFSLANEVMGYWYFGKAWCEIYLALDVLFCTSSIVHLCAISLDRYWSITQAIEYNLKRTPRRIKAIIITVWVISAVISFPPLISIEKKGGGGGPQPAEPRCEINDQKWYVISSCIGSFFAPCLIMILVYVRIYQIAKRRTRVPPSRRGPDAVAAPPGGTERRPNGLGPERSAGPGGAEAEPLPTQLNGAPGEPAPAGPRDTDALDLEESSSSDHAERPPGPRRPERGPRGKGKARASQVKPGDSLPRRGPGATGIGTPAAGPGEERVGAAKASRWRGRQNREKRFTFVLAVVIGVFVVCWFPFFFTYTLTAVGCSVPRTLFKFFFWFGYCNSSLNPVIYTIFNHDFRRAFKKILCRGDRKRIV
Experimental: as §1, §3, §4, §2

[3] = [3H]paroxetine 0.5 nM, read-out: h-5HTT pIC50 (converted)
[4] = [3H]raulwolscine 1 nM, membranes of CHO cells transfected with human α2C receptor, read-out: h-α2C pIC50 (converted)
[5] = [3H]raulwolscine 1 nM, membranes of CHO cells transfected with human α2A receptor, read-out: h-α2A pIC50 (converted)
[6] = h-5HTT pIC50, [3H]paroxetine 0.5 nM

| IC50 (5HT-Transporter; [3]) [µM] | IC50 [1, 4] [µM] | IC50 [2, 5] [µM] | Structure (SMILES) | IC50 (5HT-Transporter; [6]) [µM] | IC50 [1] [µM] | IC50 [2] [µM] |
| --- | --- | --- | --- | --- | --- | --- |
| 1.58 | 0.158 | 3.98 | O=C1c2ccccc2C(=O)N1CCCn1ccnc(NC2CCN(CCc3ccccc3)CC2)c1=O [Compound 6-6] |  |  |  |
| 6.31 | 0.316 | 1.26 | O=c1c(NC2CCN(CCc3ccccc3)CC2)nccn1Cc1ccc(Br)cc1 [Compound 6-9] |  |  |  |
| 3.16 | 0.0794 | 0.794 | CC(C)(C)OC(=O)NCCCn1ccnc(NC2CCN(CCCc3ccccc3)CC2)c1=O [Compound 7-2] |  |  |  |
| 1.58 | 0.398 | 1.58 | CC(C)(C)OC(=O)NCc1ccc(Cn2ccnc(NC3CCN(CCCc4ccccc4)CC3)c2=O)cc1 [Compound 7-3] |  |  |  |
| > 10 | 0.126 | 1.58 | O=c1c(NC2CCN(CCCc3ccccc3)CC2)nccn1CCN1CCCCC1 [Compound 7-4] |  |  |  |
| > 10 | 0.794 | 3.98 | COC(=O)Cn1ccnc(NC2CCN(CCCc3ccccc3)CC2)c1=O [Compound 7-6] |  |  |  |
| > 10 | 0.316 | 1.26 | CC(C)(C)C(=O)Cn1ccnc(NC2CCN(CCCc3ccccc3)CC2)c1=O [Compound 7-10] |  |  |  |
| 2 | 0.398 | 1.58 | O=c1c(NC2CCN(CCCc3ccccc3)CC2)nccn1Cc1ccccc1Br [Compound 7-11] |  |  |  |
| 2.51 | 0.501 | 2 | O=c1c(NC2CCN(CCCc3ccccc3)CC2)nccn1Cc1cccc(Br)c1 [Compound 7-12] |  |  |  |
| 1 | 0.501 | 1.58 | O=c1c(NC2CCN(CCCc3ccccc3)CC2)nccn1Cc1ccc(Br)cc1 [Compound 7-13] |  |  |  |
| 3.98 | 0.398 | 0.501 | O=C(Cn1ccnc(NC2CCN(CCCc3ccccc3)CC2)c1=O)c1ccccc1 [Compound 7-14] |  |  |  |
| > 10 | 0.0631 | 0.316 | CN(CCc1ccccc1)C1CCN(c2nccn(CCC(=O)c3ccccc3)c2=O)CC1 [Compound 8-2] |  |  |  |
| 2.51 | 0.631 | 0.794 | NCc1ccc(Cn2ccnc(NC3CCN(CC(c4ccccc4)c4ccccc4)CC3)c2=O)cc1 [Compound 9-2] |  |  |  |

Second part, the compound before the results:

| Structure (SMILES) | IC50 (5HT-Transporter; [3]) [µM] | IC50 [1, 4] [µM] | IC50 [2, 5] [µM] | IC50 (5HT-Transporter; [6]) [µM] | IC50 [1] [µM] | IC50 [2] [µM] |
| --- | --- | --- | --- | --- | --- | --- |
| CC(C)(C)OC(=O)NCCCn1ccnc(NC2CCN(CCc3ccccc3)CC2)c1=O [Compound 6-4] | > 10 | 0.631 | 3.16 |  |  |  |
| O=c1c(NC2CCN(CCc3ccccc3)CC2)nccn1CCN1CCCCC1 [Compound 6-5] | > 10 | 0.316 | 1.58 |  |  |  |
| O=c1c(NC2CCN(CCc3ccccc3)CC2)nccn1Cc1ccccc1Br [Compound 6-7] | 5.01 | 0.398 | 0.794 |  |  |  |
| O=c1c(NC2CCN(CCc3ccccc3)CC2)nccn1Cc1cccc(Br)c1 [Compound 6-8] |  |  |  | 5.01 | 0.398 | 1 |
| NCc1ccc(Cn2ccnc(NC3CCN(CCCc4ccccc4)CC3)c2=O)cc1 [Compound 7-1] | 0.794 | 0.1 | 0.316 |  |  |  |
| O=C1c2ccccc2C(=O)N1CCCn1ccnc(NC2CCN(CCCc3ccccc3)CC2)c1=O [Compound 7-5] |  |  |  | 1 | 0.02 | 0.501 |
| O=c1[nH]ccnc1NC1CCN(CCCc2ccccc2)CC1 [Compound 7-7] |  |  |  | > 10 | 0.794 | 1.58 |
| CCCn1ccnc(NC2CCN(CCCc3ccccc3)CC2)c1=O [Compound 7-8] | 5.01 | 0.501 | 0.794 |  |  |  |
| CSCCn1ccnc(NC2CCN(CCCc3ccccc3)CC2)c1=O [Compound 7-15] | 3.16 | 0.398 | 1 |  |  |  |
| CN(CCc1ccccc1)C1CCN(c2nccn(CCCN3C(=O)c4ccccc4C3=O)c2=O)CC1 [Compound 8-1] | 3.16 | 0.0251 | 1 |  |  |  |
| CC(C)(C)OC(=O)NCCCn1ccnc(NC2CCN(CC(c3ccccc3)c3ccccc3)CC2)c1=O [Compound 9-3] | > 10 | 0.316 | 3.98 |  |  |  |
